Patent US12396459B2, “Synergistically effective herbicide composition comprising pyridate and at least one defined 4-HPPD inhibitor” (BELCHIM CROP PROTECTION NV, priority 2018, dated 2025)
Like-named read-outs stand apart in the source and are kept apart here.

Experiments:
Format in all cases: in vivo
Capsella bursa-pastoris = test: Field trial post-emergence in maize: CAPBP
Procedure: (§1) Herbicidal activity of herbicide compositions according to the first aspect of the present invention with regard to different types of unwanted vegetation was determined during trials performed on test fields (field trials). Individual compositions comprising pyridate and individual compositions comprising a defined 4-HPPD inhibitor are compared with a herbicide composition according to the invention comprising both pyridate and a defined 4-HPPD inhibitor. The expected activity of the combination of the active compounds pyridate and a defined 4-HPPD inhibitor is calculated according to above mentioned calculation method by Colby, in order to evaluate a synergistic effect between pyridate and a defined 4-HPPD inhibitor.
(§2) Herbicidal activity was determined by applying herbicide compositions on emerged unwanted vegetation on fields where maize was cultivated. Pyridate and a defined 4-HPPD inhibitor were applied as a tank mixture by mixing these active compounds prior to use in a spray tank. The corresponding mixture was in the form of a spray liquor. Besides, spray liquors of individual compositions comprising pyridate and of individual compositions comprising a defined 4-HPPD inhibitor were used. Test plants of unwanted vegetation with a growth stage corresponding to BBCH 10-18 (according to the extended BBCH-scale) were sprayed with the active compound preparations such that particular desired amounts of active compounds are applied per unit area. Spray liquor was diluted with water to arrive at an application volume of 50 to 450 L/ha. At a specified number of days after application (DAA), the degree of damage to the unwanted vegetation is rated in % of plants of unwanted vegetation that were killed, which was assessed by visually controlling the plants.

[1] = tested on: Tripleurospermum inodorum; test: Field trial post-emergence in maize: MATIN; conditions: for herbicidal effect (h.e.): # = 1, g a.c./ha: PYR 300, MES 100, PYR + MES 300 + 90
Procedure: as §1, §2

Digitaria sanguinalis [2] = test: Examples 6-8 herbicidal effect: DIGSA; conditions: 7 DAA
Sonchus oleraceus = test: Field trial post-emergence in maize: SONOL; conditions: # = 1, g a.c./ha: PYR 300, MES 100, PYR + MES 300 + 90
Procedure: as §1, §2

Digitaria sanguinalis [3] = test: Field trial post-emergence in maize: DIGSA; conditions: g a.c./ha: PYR 300, MES 100, PYR + MES 300 + 90
Procedure: as §1, §2

Cirsium arvense = test: Field trial post-emergence in maize: CIRAR; conditions: # = 1, g a.c./ha: PYR 300, MES 100, PYR + MES 300 + 90
Procedure: as §1, §2

Setaria viridis = test: Field trial post-emergence in maize: SETVI
Procedure: as §1, §2
Example 1 concerns a herbicide composition comprising a combination of pyridate and mesotrione, which was applied post-emergence on unwanted vegetation on a field where maize was cultivated, according to the test conditions mentioned above.

Solanum nigrum [4] = test: Field trial post-emergence in maize: SOLNI; conditions: for herbicidal effect (h.e.): g a.c./ha: PYR 300, MES 100, PYR + MES 300 + 90
Procedure: as §1, §2

Stellaria media = test: Field trial post-emergence in maize: STEME
Procedure: as §1, §2

Solanum nigrum [5] = test: Examples 6-8 herbicidal effect: SOLNI; conditions: 7 DAA
Galinsoga parviflora = test: Field trial post-emergence in maize: GASPA; conditions: 31-48 DAA; # = 3; g a.c./ha: PYR 300, MES 100, PYR + MES 300 + 90
Procedure: as §1
(§3) Herbicidal activity was determined by applying herbicide compositions on emerged unwanted vegetation on fields where maize was cultivated. Pyridate and a defined 4-HPPD inhibitor were applied as a tank mixture by mixing these active compounds prior to use in a spray tank. The corresponding mixture was in the form of a spray liquor. […] At a specified number of days after application (DAA), the degree of damage to the unwanted vegetation is rated in % of plants of unwanted vegetation that were killed, which was assessed by visually controlling the plants.

Abutilon theophrasti = test: Field trial post-emergence in maize: ABUTH; conditions: 31-48 DAA; # = 2; g a.c./ha: PYR 300, MES 100, PYR + MES 300 + 90
Procedure: as §1, §3

Sorghum halepense = test: Field trial post-emergence in maize: SORHA; conditions: 7-14 DAA; # = 1; g a.c./ha: PYR 300, MES 100, PYR + MES 300 + 90
Procedure: as §1, §3

Chenopodium album = test: Examples 6-8 herbicidal effect: CHEAL; conditions: 7 DAA
Setaria verticillata = test: Examples 6-8 herbicidal effect: SETVE; conditions: 7 DAA
[6] = g a.c./ha: MES 50, PYR + SMO 300 + 800
[7] = g a.c./ha: MES 80, PYR + MES 300 + 50

For `CS(=O)(=O)c1ccc(C(=O)C2C(=O)CCCC2=O)c([N+](=O)[O-])c1` [MES, 2-(4-methylsulfonyl-2-nitrobenzoyl) cyclohexane-1,3-dione], the MES h.e. (Capsella bursa-pastoris) was 97%, the “herbicidal effect (h.e.)” value (Capsella bursa-pastoris; 7-14 DAA, # = 3, g a.c./ha: PYR 300, MES 100, PYR + MES 300 + 90) was 90% and the MES h.e. (Capsella bursa-pastoris; CAPBP 14-20 DAA 300 g a.c./ha) was 97%. The MES h.e. (Capsella bursa-pastoris; CAPBP 14-20 DAA 600 g a.c./ha) was 97%, the MES h.e. (Capsella bursa-pastoris; CAPBP 24-31 DAA 45 g a.c./ha) was 97% and the “herbicidal effect (h.e.)” value ([1]; 7-14 DAA) was 77%. For the same molecule, the “herbicidal effect (h.e.)” value ([1]; 18-28 DAA) was 78%, the “herbicidal effect (h.e.)” value ([1]; 31-48 DAA) was 80% and the MES h.e. ([1]; MATIN 24-31 DAA 45 g a.c./ha) was 80%. For the same molecule, the “herbicidal effect (h.e.)” value (Digitaria sanguinalis [2]; [6]) was 95%, the “herbicidal effect (h.e.)” value (Digitaria sanguinalis [2]; [7]) was 92% and the “herbicidal effect (h.e.)” value (Sonchus oleraceus; 7-14 DAA) was 90%. For the same molecule, the “herbicidal effect (h.e.)” value (Sonchus oleraceus; 18-28 DAA) was 54%, the “herbicidal effect (h.e.)” value (Sonchus oleraceus; 31-48 DAA) was 41% and the “herbicidal effect (h.e.)” value (Digitaria sanguinalis [3]; 7-14 DAA, # = 2) was 53%. The “herbicidal effect (h.e.)” value (Digitaria sanguinalis [3]; 18-28 DAA, # = 2) was 47%, the “herbicidal effect (h.e.)” value (Digitaria sanguinalis [3]; 31-48 DAA, # = 1) was 54% and the “herbicidal effect (h.e.)” value (Cirsium arvense; 7-14 DAA) was 58%. For the same molecule, the “herbicidal effect (h.e.)” value (Cirsium arvense; 31-48 DAA) was 78%, the MES h.e. (Setaria viridis; SETVI 14-20 DAA 45 g a.c./ha) was 83% and the MES h.e. (Setaria viridis; SETVI 14-20 DAA 90 g a.c./ha) was 92%. It also gave an MES h.e. (Setaria viridis; SETVI 14-20 DAA 135 g a.c./ha) of 95%, an MES h.e. (Setaria viridis; SETVI 24-31 DAA 45 g a.c./ha) of 72% and an MES h.e. (Setaria viridis; SETVI 24-31 DAA 90 g a.c./ha) of 92%. For the same molecule, the MES h.e. (Setaria viridis; SETVI 24-31 DAA 135 g a.c./ha) was 95%, the “herbicidal effect (h.e.)” value (Solanum nigrum [4]; 18-28 DAA, # = 7) was 91% and the “herbicidal effect (h.e.)” value (Solanum nigrum [4]; 31-48 DAA, # = 6) was 93%. The MES h.e. (Solanum nigrum [4]; SOLNI 14-20 DAA 45 g a.c./ha) was 95%, the “herbicidal effect (h.e.)” value (Stellaria media; 18-28 DAA, # = 4, g a.c./ha: PYR 300, MES 100, PYR + MES 300 + 90) was 98% and the MES h.e. (Stellaria media; STEME 14-20 DAA 45 g a.c./ha) was 78%. It also gave an MES h.e. (Stellaria media; STEME 14-20 DAA 90 g a.c./ha) of 93%, an MES h.e. (Stellaria media; STEME 14-20 DAA 135 g a.c./ha) of 93% and an MES h.e. (Stellaria media; STEME 24-31 DAA 45 g a.c./ha) of 70%. The MES h.e. (Stellaria media; STEME 24-31 DAA 90 g a.c./ha) was 87%, the MES h.e. (Stellaria media; STEME 24-31 DAA 135 g a.c./ha) was 93% and the “herbicidal effect (h.e.)” value (Solanum nigrum [5]; [6]) was 67%. The “herbicidal effect (h.e.)” value (Solanum nigrum [5]; [7]) was 54%, the “herbicidal effect (h.e.)” value (Galinsoga parviflora) was 97% and the “herbicidal effect (h.e.)” value (Abutilon theophrasti) was 91%. For the same molecule, the “herbicidal effect (h.e.)” value (Sorghum halepense) was 42%, the “herbicidal effect (h.e.)” value (Chenopodium album; [6]) was 77% and the “herbicidal effect (h.e.)” value (Chenopodium album; [7]) was 92%. For the same molecule, the “herbicidal effect (h.e.)” value (Setaria verticillata; [6]) was 0% and the “herbicidal effect (h.e.)” value (Setaria verticillata; [7]) was 3%.
